Assay results from ChEMBL document CHEMBL5653631, “A Potent and Selective ULK1 Inhibitor Suppresses Autophagy and Sensitizes Cancer Cells to Nutrient Stress” (iScience, 2018).
Each block holds one compound with its values, some of them ahead of it.

Tests used:
[1] = target: RAF proto-oncogene serine/threonine-protein kinase (Homo sapiens) (UniProt P04049); experiment: Inhibition of human recombinant RAF1 at 500 nM in presence of ATP by radiometric assay relative to control
[2] = target: Rho-associated protein kinase 2 (Homo sapiens) (UniProt O75116); experiment: Inhibition of human recombinant ROCK2 at 500 nM related to control ULK1
[3] = target: Tyrosine-protein kinase CSK (Homo sapiens) (UniProt P41240); experiment: Inhibition of human recombinant CSK at 500 nM in presence of ATP by radiometric assay relative to control
[4] = target: Death-associated protein kinase 1 (Homo sapiens) (UniProt P53355); experiment: Inhibition of human recombinant DAPK1 at 500 nM in presence of ATP by radiometric assay relative to control
[5] = target: Protein kinase C iota type (Homo sapiens) (UniProt P41743); experiment: Inhibition of human recombinant PKCi at 500 nM in presence of ATP by radiometric assay relative to control
[6] = target: Mitogen-activated protein kinase kinase kinase kinase 1 (Homo sapiens) (UniProt Q92918); experiment: Inhibition of human recombinant HPK1 at 500 nM related to control ULK1
[7] = target: Serine/threonine-protein kinase PLK3 (Homo sapiens) (UniProt Q9H4B4); experiment: Inhibition of human recombinant PLK3 at 500 nM related to control ULK1
[8] = target: T1, Serine/threonine-protein kinase Nek3 (Homo sapiens) (UniProt P51956); experiment: Inhibition of human recombinant NEK3 at 15 nM related to control ULK1
T1 sequence (whole entry): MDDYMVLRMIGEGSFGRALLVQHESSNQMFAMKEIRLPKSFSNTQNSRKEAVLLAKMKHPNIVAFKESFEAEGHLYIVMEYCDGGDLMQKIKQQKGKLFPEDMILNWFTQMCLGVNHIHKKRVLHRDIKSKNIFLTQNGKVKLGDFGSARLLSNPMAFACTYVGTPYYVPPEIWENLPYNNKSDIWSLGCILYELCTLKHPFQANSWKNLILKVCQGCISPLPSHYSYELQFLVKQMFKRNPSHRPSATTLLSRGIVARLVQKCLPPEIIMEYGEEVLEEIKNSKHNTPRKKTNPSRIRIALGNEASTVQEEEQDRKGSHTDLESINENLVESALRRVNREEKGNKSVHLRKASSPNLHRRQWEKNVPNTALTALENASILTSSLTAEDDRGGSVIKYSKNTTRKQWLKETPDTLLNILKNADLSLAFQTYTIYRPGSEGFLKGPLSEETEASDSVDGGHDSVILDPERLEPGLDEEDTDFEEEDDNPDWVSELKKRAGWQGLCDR

[9] = target: Insulin receptor-related protein (Homo sapiens) (UniProt P14616); experiment: Inhibition of human recombinant IRR at 15 nM in presence of ATP by radiometric assay relative to control
[10] = target: Serine/threonine-protein kinase 32B (Homo sapiens) (UniProt Q9NY57); experiment: Inhibition of human recombinant YANK2 at 15 nM in presence of ATP by radiometric assay relative to control
[11] = target: T2, Ephrin type-B receptor 1 (Homo sapiens) (UniProt P54762); experiment: Inhibition of human recombinant EphB1 at 15 nM in presence of ATP by radiometric assay relative to control
T2 sequence (whole entry): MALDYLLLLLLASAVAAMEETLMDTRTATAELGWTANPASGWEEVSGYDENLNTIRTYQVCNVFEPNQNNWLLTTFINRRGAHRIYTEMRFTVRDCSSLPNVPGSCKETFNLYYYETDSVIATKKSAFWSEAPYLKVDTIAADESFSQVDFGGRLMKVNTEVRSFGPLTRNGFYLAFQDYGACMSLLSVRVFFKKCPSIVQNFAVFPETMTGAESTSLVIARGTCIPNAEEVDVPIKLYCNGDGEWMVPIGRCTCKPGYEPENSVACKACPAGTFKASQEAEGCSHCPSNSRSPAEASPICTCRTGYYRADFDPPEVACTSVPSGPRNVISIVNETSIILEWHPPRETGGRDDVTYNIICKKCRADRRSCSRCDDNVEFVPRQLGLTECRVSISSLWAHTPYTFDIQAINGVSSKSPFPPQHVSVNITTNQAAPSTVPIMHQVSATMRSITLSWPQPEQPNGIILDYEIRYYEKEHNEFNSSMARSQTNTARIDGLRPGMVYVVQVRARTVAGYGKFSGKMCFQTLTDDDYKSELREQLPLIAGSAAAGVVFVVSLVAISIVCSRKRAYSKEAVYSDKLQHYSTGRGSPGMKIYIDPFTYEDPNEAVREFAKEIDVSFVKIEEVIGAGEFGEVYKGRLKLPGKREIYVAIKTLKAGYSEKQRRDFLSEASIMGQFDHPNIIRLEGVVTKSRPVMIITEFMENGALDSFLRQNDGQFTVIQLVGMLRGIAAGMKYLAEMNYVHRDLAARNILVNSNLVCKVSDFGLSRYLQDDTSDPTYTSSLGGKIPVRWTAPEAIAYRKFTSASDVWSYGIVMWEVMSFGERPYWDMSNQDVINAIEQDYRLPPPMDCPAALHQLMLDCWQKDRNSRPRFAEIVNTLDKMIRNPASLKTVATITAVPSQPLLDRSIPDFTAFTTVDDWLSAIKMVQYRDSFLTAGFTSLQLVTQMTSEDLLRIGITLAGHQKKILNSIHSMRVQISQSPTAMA

[12] = target: Serine/threonine-protein kinase D2 (Homo sapiens) (UniProt Q9BZL6); experiment: Inhibition of human recombinant PKD2 at 40 nM in presence of ATP by radiometric assay relative to control
[13] = target: T3, Mitogen-activated protein kinase kinase kinase 7 (Homo sapiens) (UniProt O43318); experiment: Inhibition of human recombinant TAK1 at 40 nM related to control ULK1
T3 sequence (whole entry): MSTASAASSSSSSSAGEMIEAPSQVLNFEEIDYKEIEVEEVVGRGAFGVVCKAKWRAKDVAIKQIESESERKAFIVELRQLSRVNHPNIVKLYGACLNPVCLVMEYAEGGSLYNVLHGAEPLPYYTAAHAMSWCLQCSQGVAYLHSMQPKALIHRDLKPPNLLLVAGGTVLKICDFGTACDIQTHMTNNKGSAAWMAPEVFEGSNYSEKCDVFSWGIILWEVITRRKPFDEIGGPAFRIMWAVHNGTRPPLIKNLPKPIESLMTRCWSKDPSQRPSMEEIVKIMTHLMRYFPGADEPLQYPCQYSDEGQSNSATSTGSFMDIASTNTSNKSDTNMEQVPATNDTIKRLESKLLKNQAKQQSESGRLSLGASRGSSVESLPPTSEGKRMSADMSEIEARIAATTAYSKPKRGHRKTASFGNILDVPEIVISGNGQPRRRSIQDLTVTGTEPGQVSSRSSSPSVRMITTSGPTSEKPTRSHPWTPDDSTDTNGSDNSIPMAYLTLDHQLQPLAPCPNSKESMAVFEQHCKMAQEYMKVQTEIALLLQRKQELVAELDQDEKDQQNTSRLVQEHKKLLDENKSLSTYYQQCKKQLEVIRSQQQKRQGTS

Chain of Serine/threonine-protein kinase PLK3 (Homo sapiens) (Q9H4B4 whole entry, looked up): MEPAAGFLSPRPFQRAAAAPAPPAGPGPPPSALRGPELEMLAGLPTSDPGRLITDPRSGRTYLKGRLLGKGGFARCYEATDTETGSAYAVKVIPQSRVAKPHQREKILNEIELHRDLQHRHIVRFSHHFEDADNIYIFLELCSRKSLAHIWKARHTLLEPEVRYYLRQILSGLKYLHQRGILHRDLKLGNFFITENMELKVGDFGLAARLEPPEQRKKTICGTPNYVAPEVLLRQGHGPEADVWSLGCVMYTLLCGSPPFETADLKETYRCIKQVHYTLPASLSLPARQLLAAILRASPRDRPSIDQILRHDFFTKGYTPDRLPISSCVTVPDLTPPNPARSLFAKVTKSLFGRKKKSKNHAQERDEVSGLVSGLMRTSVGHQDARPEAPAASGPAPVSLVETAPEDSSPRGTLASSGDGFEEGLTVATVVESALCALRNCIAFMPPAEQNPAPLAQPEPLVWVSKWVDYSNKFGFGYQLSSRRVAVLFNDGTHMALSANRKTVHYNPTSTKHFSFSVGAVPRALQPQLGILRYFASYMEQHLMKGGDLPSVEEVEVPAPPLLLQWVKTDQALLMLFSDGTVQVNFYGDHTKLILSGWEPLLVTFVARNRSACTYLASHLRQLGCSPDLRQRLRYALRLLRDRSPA
Chain of Protein kinase C iota type (Homo sapiens) (P41743 whole entry, looked up): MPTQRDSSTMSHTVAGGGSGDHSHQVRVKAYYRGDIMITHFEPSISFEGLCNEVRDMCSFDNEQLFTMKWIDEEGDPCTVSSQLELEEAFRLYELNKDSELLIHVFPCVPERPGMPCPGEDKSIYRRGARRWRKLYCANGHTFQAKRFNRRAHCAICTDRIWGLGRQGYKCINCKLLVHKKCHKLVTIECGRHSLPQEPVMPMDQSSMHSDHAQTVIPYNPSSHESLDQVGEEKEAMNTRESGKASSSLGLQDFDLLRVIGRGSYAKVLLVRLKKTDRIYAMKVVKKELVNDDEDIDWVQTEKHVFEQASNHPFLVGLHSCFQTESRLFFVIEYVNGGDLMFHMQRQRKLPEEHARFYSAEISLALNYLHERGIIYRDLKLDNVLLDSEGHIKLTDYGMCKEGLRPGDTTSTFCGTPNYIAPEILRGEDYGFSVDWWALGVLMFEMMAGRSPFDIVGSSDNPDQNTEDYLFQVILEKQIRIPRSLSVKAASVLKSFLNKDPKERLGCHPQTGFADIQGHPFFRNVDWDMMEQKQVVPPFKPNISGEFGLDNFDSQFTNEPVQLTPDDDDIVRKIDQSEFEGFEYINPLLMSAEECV
Chain of RAF proto-oncogene serine/threonine-protein kinase (Homo sapiens) (P04049 whole entry): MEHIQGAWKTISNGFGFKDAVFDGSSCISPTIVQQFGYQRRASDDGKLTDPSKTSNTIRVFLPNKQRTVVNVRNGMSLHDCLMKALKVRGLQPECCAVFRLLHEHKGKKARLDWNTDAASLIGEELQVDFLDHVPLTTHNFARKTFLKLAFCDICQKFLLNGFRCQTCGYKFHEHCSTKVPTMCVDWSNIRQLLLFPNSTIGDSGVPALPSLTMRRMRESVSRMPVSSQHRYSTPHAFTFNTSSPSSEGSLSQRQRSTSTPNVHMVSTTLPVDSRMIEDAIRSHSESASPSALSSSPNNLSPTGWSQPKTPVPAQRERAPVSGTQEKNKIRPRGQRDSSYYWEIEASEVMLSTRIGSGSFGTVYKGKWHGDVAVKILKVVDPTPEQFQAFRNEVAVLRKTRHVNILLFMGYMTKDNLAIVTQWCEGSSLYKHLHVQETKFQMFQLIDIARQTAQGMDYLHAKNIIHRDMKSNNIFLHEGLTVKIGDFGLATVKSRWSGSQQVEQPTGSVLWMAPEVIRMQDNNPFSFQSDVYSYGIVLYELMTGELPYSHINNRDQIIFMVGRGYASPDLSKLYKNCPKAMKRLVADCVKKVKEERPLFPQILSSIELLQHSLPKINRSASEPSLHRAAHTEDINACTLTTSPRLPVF
Chain of Serine/threonine-protein kinase D2 (Homo sapiens) (Q9BZL6 whole entry, looked up): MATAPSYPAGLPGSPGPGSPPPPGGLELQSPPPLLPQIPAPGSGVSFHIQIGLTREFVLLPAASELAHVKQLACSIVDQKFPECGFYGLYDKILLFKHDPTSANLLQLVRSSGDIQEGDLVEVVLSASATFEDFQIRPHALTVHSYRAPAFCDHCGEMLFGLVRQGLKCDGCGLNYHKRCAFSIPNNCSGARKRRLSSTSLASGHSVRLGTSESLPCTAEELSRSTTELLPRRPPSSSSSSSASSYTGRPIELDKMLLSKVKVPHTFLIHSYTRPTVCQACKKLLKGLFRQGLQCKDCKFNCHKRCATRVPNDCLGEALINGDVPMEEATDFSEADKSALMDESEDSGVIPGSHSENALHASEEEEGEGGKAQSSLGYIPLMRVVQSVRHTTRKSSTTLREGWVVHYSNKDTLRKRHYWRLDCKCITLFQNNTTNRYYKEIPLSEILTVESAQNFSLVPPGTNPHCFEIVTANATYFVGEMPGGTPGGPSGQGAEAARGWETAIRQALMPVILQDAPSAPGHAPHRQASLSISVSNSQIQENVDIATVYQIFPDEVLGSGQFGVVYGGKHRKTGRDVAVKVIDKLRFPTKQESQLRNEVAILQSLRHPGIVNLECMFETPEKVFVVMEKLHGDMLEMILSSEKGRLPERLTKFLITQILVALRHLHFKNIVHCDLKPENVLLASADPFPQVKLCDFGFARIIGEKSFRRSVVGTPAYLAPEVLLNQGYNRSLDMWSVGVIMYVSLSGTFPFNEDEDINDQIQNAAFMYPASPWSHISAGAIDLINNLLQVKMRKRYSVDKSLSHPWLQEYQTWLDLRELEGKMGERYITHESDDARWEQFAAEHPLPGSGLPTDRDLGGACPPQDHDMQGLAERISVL
Chain of Rho-associated protein kinase 2 (Homo sapiens) (O75116 whole entry, looked up): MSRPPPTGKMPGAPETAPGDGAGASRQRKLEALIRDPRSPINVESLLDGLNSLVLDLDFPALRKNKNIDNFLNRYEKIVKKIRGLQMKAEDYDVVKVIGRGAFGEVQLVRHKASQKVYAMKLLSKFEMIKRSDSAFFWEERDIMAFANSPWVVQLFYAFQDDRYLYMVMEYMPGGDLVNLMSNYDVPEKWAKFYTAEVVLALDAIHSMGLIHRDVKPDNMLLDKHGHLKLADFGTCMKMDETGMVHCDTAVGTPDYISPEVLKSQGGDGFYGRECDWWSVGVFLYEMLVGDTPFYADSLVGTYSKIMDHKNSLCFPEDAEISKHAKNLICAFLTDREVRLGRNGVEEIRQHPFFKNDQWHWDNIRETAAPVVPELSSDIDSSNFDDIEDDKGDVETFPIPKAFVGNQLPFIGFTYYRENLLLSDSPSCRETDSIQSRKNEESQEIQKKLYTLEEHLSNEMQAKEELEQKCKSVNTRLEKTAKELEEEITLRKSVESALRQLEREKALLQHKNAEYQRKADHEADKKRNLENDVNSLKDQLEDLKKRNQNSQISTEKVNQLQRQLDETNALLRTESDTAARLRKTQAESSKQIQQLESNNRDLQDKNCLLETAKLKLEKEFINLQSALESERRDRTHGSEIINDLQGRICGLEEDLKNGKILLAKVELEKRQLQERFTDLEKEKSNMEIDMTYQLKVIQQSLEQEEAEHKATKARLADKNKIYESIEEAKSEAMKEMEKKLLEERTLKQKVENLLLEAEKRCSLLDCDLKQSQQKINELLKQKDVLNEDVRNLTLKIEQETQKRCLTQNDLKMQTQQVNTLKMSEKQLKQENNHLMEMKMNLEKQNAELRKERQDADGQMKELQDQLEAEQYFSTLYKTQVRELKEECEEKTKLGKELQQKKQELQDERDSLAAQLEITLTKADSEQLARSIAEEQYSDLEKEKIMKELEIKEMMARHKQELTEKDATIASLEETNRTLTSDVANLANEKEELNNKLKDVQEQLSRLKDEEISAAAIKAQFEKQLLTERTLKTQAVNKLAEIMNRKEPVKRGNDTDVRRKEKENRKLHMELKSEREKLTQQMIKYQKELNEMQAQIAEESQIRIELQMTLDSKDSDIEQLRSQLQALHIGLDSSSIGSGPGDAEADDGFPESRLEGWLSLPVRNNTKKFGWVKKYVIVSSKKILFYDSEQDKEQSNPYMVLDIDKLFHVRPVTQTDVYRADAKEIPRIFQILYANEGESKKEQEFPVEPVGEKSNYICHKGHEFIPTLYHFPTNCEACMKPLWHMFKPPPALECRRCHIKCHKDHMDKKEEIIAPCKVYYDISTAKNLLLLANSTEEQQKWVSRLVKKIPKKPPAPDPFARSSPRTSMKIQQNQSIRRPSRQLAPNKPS
Chain of Tyrosine-protein kinase CSK (Homo sapiens) (P41240 2-450 limits assumed): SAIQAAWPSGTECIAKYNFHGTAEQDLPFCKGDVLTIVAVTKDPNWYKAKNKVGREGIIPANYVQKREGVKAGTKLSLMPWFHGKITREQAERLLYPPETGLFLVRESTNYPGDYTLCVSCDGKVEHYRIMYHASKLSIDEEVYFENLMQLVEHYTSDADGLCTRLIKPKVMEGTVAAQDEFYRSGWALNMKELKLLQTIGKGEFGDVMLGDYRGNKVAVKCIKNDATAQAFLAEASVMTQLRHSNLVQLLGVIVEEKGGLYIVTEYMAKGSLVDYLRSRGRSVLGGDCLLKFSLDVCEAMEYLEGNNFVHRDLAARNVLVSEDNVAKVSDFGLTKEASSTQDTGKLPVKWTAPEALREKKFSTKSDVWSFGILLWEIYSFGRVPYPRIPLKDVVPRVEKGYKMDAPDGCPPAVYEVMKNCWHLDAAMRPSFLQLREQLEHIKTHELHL
Chain of Serine/threonine-protein kinase 32B (Homo sapiens) (Q9NY57 whole entry): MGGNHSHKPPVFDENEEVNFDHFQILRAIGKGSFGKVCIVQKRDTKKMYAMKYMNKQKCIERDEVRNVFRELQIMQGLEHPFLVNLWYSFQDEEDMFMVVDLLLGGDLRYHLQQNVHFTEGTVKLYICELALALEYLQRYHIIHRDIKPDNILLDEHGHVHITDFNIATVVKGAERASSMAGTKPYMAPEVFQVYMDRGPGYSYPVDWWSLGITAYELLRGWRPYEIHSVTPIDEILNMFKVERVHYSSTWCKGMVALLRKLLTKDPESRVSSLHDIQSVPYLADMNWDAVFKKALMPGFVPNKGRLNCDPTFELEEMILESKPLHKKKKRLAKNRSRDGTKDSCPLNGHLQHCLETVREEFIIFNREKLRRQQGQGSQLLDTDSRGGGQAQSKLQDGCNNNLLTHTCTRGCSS

- inhibition [1]: 11%
- fold change (FC) [2]: 0
- inhibition [3]: 2%
- inhibition [5]: 0%
- fold change (FC) [6]: 0.43
- fold change (FC) [7]: 0
Structure (SMILES): CNC(=O)c1ccccc1Oc1nc(Nc2cc(OC)c(OC)c(OC)c2)ncc1Br
- inhibition [4]: 0%

- fold change (FC) [8]: 0.01
- inhibition [9]: 2%
- inhibition [10]: 0%
- inhibition [11]: 12%
Structure (SMILES): CC(C)[C@H](NC(=O)c1cc(-c2cnn3cc(-c4ccc(OCCN5CCCCC5)cc4)cnc23)cs1)C(F)(F)F

- inhibition [12]: 6%
- fold change (FC) [13]: 0
Structure (SMILES): O=C(N[C@@H](C1CC1)C(F)(F)F)c1cc(-c2cnn3cc(-c4ccc(F)cc4)cnc23)cs1
